From publication PMC4682109, “The experimental power of FR900359 to study Gq-regulated biological processes” (Nature Communications, 2015)
Read-outs that look alike come from different tables or passages of the source. Starred links: 1 amine or outer side, 2 acyl side, 3 side chain; linkers in the order of their positions; H or OH if unused. Positions of bridges follow the written chain, without caps; N, C: chain ends. Non-standard residues stand in square brackets, D forms with d. Residues, ends and D or L forms follow the SMILES beside them. ξ: configuration not given here. *: point of attachment. Leu(3R-OH,Nα-propionyl) = CCC(=O)N[C@H](C(=O)*)[C@H](O)C(C)C; X1 = CC(C)[C@@H](O[*:3])[C@H](N[*:1])C(=O)[*:2]; NMeT = CN[C@H](C(=O)O)[C@@H](C)O; dPhLac = O=C(O)[C@H](O)Cc1ccccc1; NMeA = CN[C@@H](C)C(=O)O; NMeDha = C=C(NC)C(=O)O; ξNMeA = CNC(C)C(=O)O

Key:
ERK1/2 = experiment: HTRF-based ERK1/2 phosphorylation assay in melanoma cell lines; design: species or system human and mouse; details: 1 μM, 1 h
Experimental: Quantification of phosphorylated ERK1/2 levels was performed using the phospho-ERK (Thr202/Tyr204) cellular assay kit (Cisbio). Melanoma cells were seeded into 96-well plates at a density of 25,000 or 50,000 cells per well and cultured overnight. The next day, medium was aspirated and cells were treated with 1 μM FR, 1 μM Trametinib, 1 μM Vemurafenib, or medium for 1 h at 37 °C. Subsequently, medium and inhibitors were removed and 50 μl lysis buffer were added to each well. The plates were incubated for 30 min at room temperature with shaking to lyse the cells and then frozen overnight at −20 °C. Lysates (16 μl) were transferred to a white 384-well plate. Anti-phospho-ERK1/2-d2 (2 μl) and anti-phospho-ERK1/2-Eu3^+-cryptate (2 μl) were added to each well and plates were incubated in the dark for 2 h at room temperature. Time-resolved fluorescence resonance energy transfer (FRET) signals were measured using the Mithras LB 940 multimode reader (Berthold Technologies).

Gq = target: T1, Gq (Cricetulus griseus, UniProt Q3HR10); experiment: IP1 accumulation in M1-CHO cells, carbachol; format: cell-based, Chinese hamster; details: carbachol 30 µM, means ± SEM of at least three experiments, read-out: pIC50, IP1 (% of 30 µM carbachol) (converted)
T1 construct: endogenous in cells; host or cells: M1-CHO cells
T1 sequence (Q3HR10 1-359): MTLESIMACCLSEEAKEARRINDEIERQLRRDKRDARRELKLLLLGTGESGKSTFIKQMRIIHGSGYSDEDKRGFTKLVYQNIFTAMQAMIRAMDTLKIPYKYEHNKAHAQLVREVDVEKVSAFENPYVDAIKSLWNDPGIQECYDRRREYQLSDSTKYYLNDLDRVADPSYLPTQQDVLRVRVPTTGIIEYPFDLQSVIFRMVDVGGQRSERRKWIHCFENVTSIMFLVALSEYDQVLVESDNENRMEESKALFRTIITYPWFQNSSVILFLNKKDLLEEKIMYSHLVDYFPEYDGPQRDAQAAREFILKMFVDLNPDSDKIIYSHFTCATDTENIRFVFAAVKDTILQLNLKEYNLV
Experimental: (§1) Quantification of intracellular cAMP and IP1 was performed using the HTRF-cAMP dynamic kit and the HTRF-IP1 kit, respectively, on a Mithras LB 940 reader (Berthold Technologies) according to the manufacturer's instructions. For cAMP assays with M2-CHO cells, the Gi-biased muscarinic agonist iper-6-phth (ref. [30]) was applied.
Supplementary Figure 12: Catalytic hydrogenation of FR to produce “FR-red” and determination of its Gq-inhibitory activity. (a) The exocyclic double bond (yellow box) of FR was hydrogenated by hydrogen gas in the presence of palladium/carbon as a catalyst in a pressure tube in analogy to a procedure published for the hydrogenation of YM2. The structure of the product FR-red was confirmed by high performance liquid chromatography coupled to electrospray ionization mass spectrometry (LCMS) and by 1H- and 13C-NMR spectra. (b) M1-CHO cells were pre-incubated with increasing concentrations of FR or (also on this page, place not known: “FR -red” hydrogen ation YM 2. -red FR a b -8 -7 -6 -5 0 25 50 75 100 FR compound (log M) IP1 (% of 30 µM carbachol) FR FR-red)
(1 picture or pasted object on this page, not shown here)
FR-red and IP1 accumulation was determined in response to carbachol (30 µM). Inhibition of Gq protein […]
± 0.05). Data are means ± SEM of at least three independent experiments each performed in triplicate.

[1] = test system: Gi-sensitive prostaglandin D2 receptor DP2/CRTH2; experiment: cAMP lowering (HTRF), Gi-sensitive CRTH2 in CRTH2-HEK293; format: cell-based; details: CRTH2-RLuc-GFP2-β-arrestin2-HEK293, PTX pretreatment
Experimental: as §1

[2] = test system: CRTH2 β-arrestin2 recruitment; experiment: BRET2 β-arrestin2 recruitment to CRTH2; format: cell-based; details: CRTH2-RLuc-GFP2-β-arrestin2-HEK293; PTX 16-20 h, FR 30 min
Experimental: For BRET^2 assays on HEK293 cells stably expressing CRTH2-Luc and GFP^2-β-arrestin2, cells were detached and resuspendend in HBSS with 20 mM HEPES at a density of 1.06 × 10^6 cells per ml. Cell suspension (170 μl) was distributed into white 96-well microplates and incubated in the presence of 10 μl buffer or agonist for 5 min before substrate addition. DeepBlueC coelenterazine (Gold Biotechnology, MO, USA; 20 μl per well) was injected by injector 3 to yield a final concentration of 5 μM. To detect BRET, light emissions at 400 and 515 nm were measured sequentially using a Mithras LB 940 instrument. The BRET signal (BRET ratio) was determined by calculating the ratio of the light emitted by the fluorescence acceptor (515 nm) and the light emitted by Rluc (400 nm). The cells were pretreated with PTX for 16–20 h and FR for 30 min.

[3] = test system: HEK293 wild type and HEK293 Gαq/11 knockout cells; experiment: Cell viability (CellTiter-Blue, resazurin) in HEK293 wild type and Gαq/11 knockout cells; format: cell-based; details: supramaximal FR concentrations, 24 h
Experimental: (§2) B16 cell viability in the presence of various concentrations of FR was measured using the XTT-based cell proliferation kit II (Fa. Roche) according to the manufacturer's protocols. Viability of HEK293 cell lines was assessed using a fluorimetric detection of resorufin (CellTiter-Blue Cell Viability Assay, Promega). Specifically, Gαq/11 ko-HEK293 and HEK293 cells were seeded at a density of 20,000 and 25,000 cells per well into black 96-well poly-D-lysine-coated plates with clear bottom, respectively. Three hours after seeding cells were treated with 0.3% DMSO or FR dissolved in medium for 24 h. To detect cell viability, CellTiter-Blue reagent was added and cells were incubated for 1 h at 37 °C according to the manufacturer's instructions. Fluorescence (excitation 560 nm, emission 590 nm) was measured using a FlexStation 3 Benchtop Multimode Plate Reader and data were expressed as percentage of cell viability relative to DMSO control.

[4] = test system: HEK293 Gαq/11 knockout cells; experiment: Cell growth and Ki67 staining in HEK293 Gαq/11 knockout cells; format: cell-based; details: FR 10 μM
Experimental: For analysis of growth properties of HEK293 cells, 10^5 HEK 293 cells per well were seeded on a 6-well tissue culture plate. After 3 h cells were treated with either 10 μmol FR or 0.1% DMSO. After 72 h cell number was determined by counting in a Neubauer chamber.
Cells grown on coverslips were fixed with 4% paraformaldehyde in PBS and stained with antibodies as follows (in 0.2% Triton X in PBS, supplemented with 5% donkey serum; 2 h at room temperature): Ki67 MIB-1 (1:200, Covance) and vimentin (1:1,000, Chemicon). Primary antibodies were visualized by secondary antibodies conjugated to Cy5 (1:400, Jackson ImmunoResearch) diluted in 1 μg ml^−1 Hoechst 33342 (nuclei staining) at room temperature for 1 h. For documentation an inverted fluorescence microscope (Axiovert 200; Carl Zeiss MicroImaging, Inc.) equipped with a slider module (ApoTome; Carl Zeiss MicroImaging, Inc.), using filters for DAPI, GFP, Cy3 and Cy5, x25, x40 DIC Plan Apochromat oil objectives, an ebx 75 light source and an AxioCam MRm digital camera was used. Pictures were generated with the Axiovision Rel. 4.8 software (Zeiss).

[5] = test system: HEK293 Gαq/11 knockout cells; experiment: Annexin V flow cytometry in HEK293 Gαq/11 knockout cells; format: cell-based; details: FR 10 μM, 72 h; representative experiment
Excerpt: For apoptosis analysis of HEK293 cells, cells were stained for Annexin V by use of the Annexin V-FITC Apoptosis Detection Kit (Calbiochem) according to the manufacturer's instructions.

[6] = target: T2, purified recombinant Gαq (GαqΔ34) (Mus musculus, UniProt P21279); experiment: [3H]GDP dissociation from purified Gαq; format: biochemical
T2 construct: first 28 residues of rat Gαi1 (GNAI1, P10824 by own knowledge) (N); TEV-cleavage site (N); made in house; host or cells: insect cells (Sf9), pFastBac1 vector
T2 sequence (P21279 35-359): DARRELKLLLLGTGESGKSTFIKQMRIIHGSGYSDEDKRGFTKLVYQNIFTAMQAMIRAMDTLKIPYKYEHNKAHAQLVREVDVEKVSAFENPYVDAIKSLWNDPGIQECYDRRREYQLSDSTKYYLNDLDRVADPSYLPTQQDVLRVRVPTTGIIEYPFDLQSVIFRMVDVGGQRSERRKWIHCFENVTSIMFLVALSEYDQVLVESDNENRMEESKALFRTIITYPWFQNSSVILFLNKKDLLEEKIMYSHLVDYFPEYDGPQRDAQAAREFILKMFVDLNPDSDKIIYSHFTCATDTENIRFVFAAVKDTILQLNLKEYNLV
Experimental: GαqΔ34 (containing the first 28 residues of rat Gαi1 fused to mouse Gαq lacking the first 34 residues, and with a TEV-cleavage site between the Gαi1 and Gαq sequences) was purified after expression from a pFastBac1 vector in insect cells. Purified GαqΔ34 (∼7 mg ml^−1) was stored at −80 °C in 20 mM HEPES pH 8, 0.2 mM dithiothreitol, 2% (v/v) glycerol, 100 mM NaCl, 0.1 mg ml^−1 PMSF augmented with 10 mM NaF, 30 μM AlCl3, and 5 mM MgCl2.
[^3H]GDP exchange by Gαq was measured based on previous protocols. Briefly, purified GαqΔ34 (100 nM) was incubated with 1 μM [^3H]GDP (42,500 c.p.m. pmol^−1) and 50 mM (NH4)2SO4 for 18 h at 20 °C in assay buffer A (50 mM HEPES pH 7.5, 1 mM EDTA, 0.9 mM MgSO4, 1 mM dithiothreitol, and 0.05% Genapol C-100). Excess [^3H]GDP was removed from Gαq using a ZebaTM spin desalting column following the manufacturer's protocol (Thermo Scientific). Approximately 20% of Gαq incorporated the radiolabelled nucleotide. The reaction mixtures were then mixed with the same volume of assay buffer A in the presence of 0.1–2% dimethylsulphoxide (DMSO), 0–200 nM FR and 1.5 M (NH4)2SO4 to reach final concentrations of […] DMSO, 0–100 nM FR and 750 mM (NH4)2SO4 in the reaction. Dissociation of [^3H]GDP was monitored at 20 °C by stopping the reaction by addition of 4 ml of an ice-cold wash buffer (20 mM Tris pH 8.0, 100 mM NaCl and 2 mM MgSO4). The quenched mixtures were filtered through nitrocellulose membranes, the membranes were washed four times with ice-cold wash buffer, and the filters air-dried for at least 10 min. Radioactivity was quantified by scintillation spectrometry.
Supplementary Table 1: logEC values of the inhibitory effect of FR on [3H]GDP dissociation were
independent of the time point used for quantification.
[3H]GDP binding to purified Gαq proteins was quantified in presence of increasing concentrations of FR
after four different time points (30 min, 60 min, 90 min, 120 min). Data were analyzed by fitting [3H]GDP
binding versus FR concentration to the four parameter logistic function and the logarithm of the half
maximal effective concentrations (logEC50 expressed as means ± SEM from the respective curves in Fig.
7h) for FR-induced inhibition of [3H]GDP dissociation are presented.

B16 cells = experiment: XTT metabolic activity of B16 cells; format: cell-based, mouse; details: 72 h of FR treatment
Experimental: as §2

With `CC(=O)Nc1cccc(-n2c(=O)n(C3CC3)c(=O)c3c(Nc4ccc(I)cc4F)n(C)c(=O)c(C)c32)c1` [Trametinib] the ERK phosphorylation (ERK1/2) was “blunted ERK phosphorylation in all cell lines”.

In the case of `CCCS(=O)(=O)Nc1ccc(F)c(C(=O)c2c[nH]c3ncc(-c4ccc(Cl)cc4)cc23)c1F` [Vemurafenib], the ERK phosphorylation (ERK1/2) is reported as “inhibited ERK activation only in cell lines harbouring the mutant B-RafV600E allele”.

With `CCC(=O)N[C@H](C(=O)O[C@H](C(C)C)[C@@H]1NC(=O)[C@H](C)N(C)C(=O)[C@H](C)NC(=O)C(C)N(C)C(=O)[C@@H](Cc2ccccc2)OC(=O)[C@@H](NC(C)=O)[C@@H](C(C)C)OC(=O)[C@H]([C@@H](C)OC)N(C)C1=O)[C@H](O)C(C)C` (stereo partly drawn) [FR-red] (Ac-[X1][dPhLac][ξNMeA]A[NMeA][X1](Leu(3R-OH,Nα-propionyl))[NMeT](Me); ester 1-C) the IC50 (Gq) was 891 nM.

For pertussis toxin [PTX], the “CRTH2-dependent lowering of cAMP” value [1] was “fully prevented” and the “PGD2-induced β-arrestin recruitment to CRTH2” value [2] was “without effect”.

`C=C1C(=O)N[C@@H](C)C(=O)N(C)[C@@H](C)C(=O)N[C@@H]([C@H](OC(=O)[C@@H](NC(=O)CC)[C@H](O)C(C)C)C(C)C)C(=O)N(C)[C@@H]([C@@H](C)OC)C(=O)O[C@H](C(C)C)[C@H](NC(C)=O)C(=O)O[C@H](Cc2ccccc2)C(=O)N1C` [FR, FR900359] (Ac-[X1][dPhLac][NMeDha]A[NMeA][X1](Leu(3R-OH,Nα-propionyl))[NMeT](Me); ester 1-C) was tested, and the “cell viability / cellular metabolic homoeostasis” value [3] was “does not disturb cellular metabolic homoeostasis”, the “percentage of proliferating cells (Ki67)” value ([4]; 24 h) was “did not alter” and the cell growth ([4]; 72 h) was “did not alter”. The “Annexin V” value [5] was 2.06%, the IC50 (Gq) was 263 nM and the EC50 ([6]; [3H]GDP binding to Gαq after 120 min dissociation, 20 °C, read-out: half effective concentration, prevention of [3H]GDP dissociation) was 15 nM. The EC50 ([6]; time 30 min, read-out: logEC50, inhibition of [3H]GDP dissociation (converted)) was 15.5 nM, the EC50 ([6]; time 60 min, read-out: logEC50, inhibition of [3H]GDP dissociation (converted)) was 12.3 nM and the EC50 ([6]; time 90 min, read-out: logEC50, inhibition of [3H]GDP dissociation (converted)) was 13.2 nM. For the same molecule, the EC50 ([6]; time 120 min, read-out: logEC50, inhibition of [3H]GDP dissociation (converted)) was 15.5 nM and the “mitochondrial metabolism (XTT)” value (B16 cells) was “did not compromise mitochondrial metabolism”.
